93 compounds from a melting point compilation (Tetko et al.; mined from patent text by program, amines drawn as free bases though some values may be those of a salt) can be followed below.

In general, melting point refers to the temperature of the solid-liquid transition.

Where only a bound is given, the exact number is not on record here.

In turn, `COC(=O)c1ccc(OC)c(Oc2ccccc2)c1` had a melting point of 61 to 63 °C.
Consider `Cc1ccc(C(C)N(O)C(N)=S)s1` (stereo not drawn), for which the melting point is 155 °C.
In turn, `COc1ccc(Br)c2c1C(=O)C(C=O)C2` (stereo not drawn) gave a melting point of 76 to 78 °C.
In turn, `ClCc1ccc2cc(Cl)ccc2c1` showed a melting point of 107 to 110 °C.
As to `CC(C)N(CCCC(=NNC(N)=S)c1ccccc1)C(=O)c1ccccc1`, the melting point fell in the range of 107 to 109 °C.
In the case of `CCOC(=O)c1cc(S(=O)(=O)N2c3ccccc3-c3ccccc3C2C)ccc1OCC` (stereo not drawn) it was 113 to 115 °C; in that of `CCC(=O)c1ccc(Cl)c2nc3n(c12)CCCN3c1ccc(Cl)cc1Cl`, 156 to 157 °C.
Consider `Cc1noc(-c2ccccc2)c1-c1ccc(S(C)(=O)=O)cc1`, for which the melting point fell in the range of 144 to 145 °C.
In the case of `CCCCCCCNC(=O)Nc1ccccc1C(=O)Nc1ccccn1` it was 118 °C; in that of `Cc1c(Cl)cccc1N=C1NCCN1C(=O)c1ccc(C#N)cc1`, 224 to 228 °C.
In turn, `O=C(O)c1cccc(-c2ccc3c(c2)N(Cc2ccc(Cl)cc2Cl)CC3)c1` yielded a melting point of 175 to 176 °C.
The result for `Oc1ccc2cc(OCC(O)CCc3cccnc3)ccc2c1` (stereo not drawn) reads 165 to 166 °C; that for `COC(=O)c1cc(=O)c2oc3ccccc3c(=O)c2n1C`, 290 to 293 °C; that for `COC1(c2cc(F)cc(OCc3ccc4ccccc4c3)c2)CCOCC1`, 109 to 111 °C.
The result for `O=[N+]([O-])c1ccc2c(c1Br)OCO2` reads 87 to 89 °C.
As for `CCOC(=O)CC1SC(c2cc(C(C)(C)C)c(O)c(C(C)(C)C)c2)N(CCCBr)C1=O` (stereo not drawn), the melting point lay within 154 to 155 °C.
In the case of `O=C(C(Cl)c1ccccc1)N1CCCC1` (stereo not drawn) it was 88.5 °C; in that of `Ic1ccnc2c1CCCN2`, 117 to 118 °C.
`C[C@H]1CCCC(C)(C)[C@@H]1[C@H](O)c1cccc(C#N)c1`: the melting point fell in the range of 105 to 107 °C.
In the case of `CCCCS(=O)c1ccc(-n2[nH]c3ccccc3c2=O)cc1` (stereo not drawn), the melting point lay in the range of 168 to 169 °C.
With `S=C=Nc1ccc2nc(Oc3ccccc3)sc2c1`, the melting point is 118 to 119 °C.
The compound `CC(C)(Br)C(=O)NCc1ccccc1` returned a melting point of 73.4 to 75.5 °C.
`Clc1cc(Cl)c2nccc(Br)c2c1` returned a melting point of 164 to 166 °C.
In turn, `Cc1nnc(CO)n1-c1ccc(Cl)cc1C(=O)c1ccccc1` gave a melting point of 138 to 142 °C.
Regarding `Cc1cccc(C(=O)NCN2CCN(c3cccc(C#N)c3)CC2)c1`, the melting point lay in the range of 59 to 61 °C.
For `CC(C)N(C1CCCCC1)S(=O)(=O)N[C@@H](Cc1ccc(Oc2nccc3cnccc23)cc1)C(=O)O`, the melting point is 138 °C.
Compound `CC(=O)Nc1cc(-c2ccncc2)cc2nc(-c3ccc(C)o3)nn12` returned a melting point of 257 to 259 °C.
`O=C(Nc1ccc(S(=O)(=O)N2CCC(CNC[C@H](O)COc3ccc(O)cc3)CC2)cc1)Nc1ccccn1` showed a melting point of 189 °C.
With `COc1ccc(C(=CC#N)c2cccc([N+](=O)[O-])c2)cc1OC`, the melting point was 118 to 120 °C.
The compound `CC(C)(C)OC(=O)NCC(O)CNC(=O)OC(C)(C)C` showed a melting point of 92 °C.
For `C#CCC1(O)CCN(c2ccc(N3C[C@H](CNC(C)=O)OC3=O)cc2F)CC1`, the melting point was in the range of 166 to 167 °C.
As for `CC(C)(CSc1ccc(Cl)cc1)C(O)Cn1ccnc1` (stereo not drawn), the melting point fell in the range of 109 to 110 °C.
`CCOC(=O)C(=Cc1ccco1)c1csc(N)n1` registered a melting point of 109 to 110 °C.
`CCC(O)C1CCNCC1` (stereo not drawn) displayed a melting point of 50 °C.
For the compound `CN1CCN(c2cnc3ccccc3n2)CC1`, the melting point was 109 to 111 °C.
Compound `CC(C)(C)c1ccc2c(c1)C(=O)c1ccc(-c3nnn[nH]3)cc1S2(=O)=O` gave a melting point of 228 °C.
In turn, `CCOC(=O)[C@H](CC(C)C)NC(=O)[C@@H]1CCCN1C(=O)OCc1ccccc1` gave a melting point of 60 to 64 °C.
In the case of `CC1(C)OC(=O)Nc2ccc(/C(=C/C(N)=O)c3ccccc3)cc21` it was 219 to 220 °C; in that of `Cc1cc2c3c(cccc3c1)C(=O)N(O)C2=O`, 251 to 253 °C; in that of `O=C(OCCC1CCCCC1)c1ncn2c1[C@@H]1CCCN1C(=O)c1c(Cl)cccc1-2`, 131 to 132 °C.
On to `O=[N+]([O-])C(=Cc1ccc(F)cc1)c1ccc(F)cc1`, for which the melting point fell in the range of 107 to 109 °C.
The result for `O=C(O)C1=Cc2cc(F)cc(F)c2OC1C(F)(F)F` (stereo not drawn) reads 207 to 211 °C; that for `COCc1cnc2c(NC(=O)c3ccccc3[N+](=O)[O-])cccc2c1N1CCN(C)C1=O`, 156 to 159 °C; that for `CCOC(=O)c1cc(SC(F)F)c(-c2ccc(Cl)cc2)[nH]1`, 113 to 117 °C.
For `N#Cc1c(Cl)c(F)cc(C(=O)Cl)c1Cl`, the melting point fell in the range of 73 to 75 °C.
The compound `CC(C)OC(=O)NS(=O)(=O)Cl` returned a melting point of 66 °C.
The result for `CSC(Oc1cc(C)c2ncc(I)cc2c1)C(=O)NC(C)(C#N)CF` (stereo not drawn) reads 70 to 79 °C; that for `Cn1ncc(C(=O)c2ccc(Cl)cc2Cl)c1Cl`, 81 to 83 °C.
As for `COc1ccc(-c2coc3ccc(-c4nnc(SCc5cccc(C#N)c5)o4)cc23)cc1`, the melting point was in the range of 145 to 146 °C.
`Nc1c(Cl)cc(Cl)c(CCC(=O)O)c1Cl` displayed a melting point of 145 °C.
The compound `CC1(C)Oc2c(ccc3oc(C(=O)O)cc(=O)c23)-c2ccc(Cl)cc21` gave a melting point of 257 to 258 °C.
In the case of `Cn1c(=O)c2c(ncn2CC(=O)Nc2ccc(-n3nc(C(F)(F)F)cc3C3CC3)cc2)n(C)c1=O`, the melting point was 178 to 184 °C.
Compound `O=c1[nH]cc(-c2ccncn2)cc1Br` returned a melting point above 250 °C.
`N=C(NS(=O)(=O)C=Cc1ccc([N+](=O)[O-])cc1)c1ccc2ccccc2c1` displayed a melting point of 180 to 182 °C.
Turning to `CSc1nnc2n1C=Cc1cc(C)ccc1C2`, the melting point lay within 161 to 162 °C.
The compound `COc1ccc2c(c1)/C(=C/C#N)C(c1ccccc1)C2` (stereo not drawn) gave a melting point of 112 to 114 °C.
`O=C(O)c1ccc2[nH]c(=O)n(CCCCN3CC=C(c4ccccc4)CC3)c(=O)c2c1` returned a melting point of 237 °C.
Regarding `CC(=O)OC(=O)c1ccc(N2C(=O)NC(N(CC(C)C)C(C)=O)NC2=O)cc1`, the melting point was in the range of 134 to 137 °C.
Compound `CCN1CC(O)CC1=O` (stereo not drawn) returned a melting point of 53 to 54 °C.
As for `COc1ccc2c(c1)c(-c1[nH]c3ncccc3c1F)cn2C`, the melting point was in the range of 248 to 250 °C.
Compound `CCCN1C(=O)N2CCN=C2c2[nH]c(C3CCCC3)nc21` displayed a melting point of 215 to 216 °C.
In the case of `CC1CC2C(=CCC3(C)C2CCC3(O)C(=O)CO)C2(C)C=CC(=O)C=C12` (stereo not drawn), the melting point was in the range of 204 to 206 °C.
`CCOC(=O)Cc1nc(-c2ccc(Cl)cc2)oc1-c1ccoc1` had a melting point of 124 to 125 °C.
For the compound `CSc1cccc(Cc2sc(NC(C)=O)nc2C=O)c1`, the melting point lay in the range of 148 to 150 °C.
`NC(=O)c1c(C(F)(F)F)ccc(Cl)c1F` had a melting point of 123 to 125 °C.
In the case of `CC(=O)OC[C@@H](C)[C@H]1CC[C@H]2[C@@H]3C=CC4=CC(=O)C=C[C@]4(C)[C@H]3CC[C@]12C` it was 90 to 93 °C; in that of `CCOC(=O)C(=CC=C(SC)C(=O)c1ccc(Br)cc1)N(C)C`, 107 °C; in that of `CC(C)c1cc(O)n(C)n1`, 120 to 122 °C.
As to `CCCc1c(OCCCCCCCOc2ccc(C(=O)c3cccc(C(=O)O)c3)cc2CCC(=O)O)ccc2c1OCCC2=O`, the melting point is 152 to 153 °C.
The result for `C=C(C)C(=O)OCCCCc1cc(-c2ccc(OC(=O)C(=C)C)cc2)ccc1OC(=O)C(=C)C` reads 76 °C.
Turning to `CC1(C)C(C=C2CC2(F)F)C1C(=O)O` (stereo not drawn), the melting point is 78.9 °C.
The result for `CC(=Cc1ccc(O)cc1)c1ccc2c(c1)C(C)(C)C(O)C2(C)C` (stereo not drawn) reads 148 to 149 °C; that for `CC(C)c1cn2cccc(CO)c2n1`, 97 to 99 °C; that for `CC(=O)Nc1ccc(Cl)cc1C(=O)c1ccccc1Cl`, 108 to 110 °C.
In the case of `NS(=O)(=O)c1ccc(N2CN(C3CCCCC3)CC2=O)c(Cl)c1`, the melting point is 188 to 190 °C.
On to `CC(=O)C1=CC(C)(C)C=CC1`, for which the melting point was 27 to 30 °C.
As to `O=C(NC1CCCc2cc(C(=O)Nc3ccncc3)ccc21)OCc1ccccc1` (stereo not drawn), the melting point was in the range of 157 to 159 °C.
`COc1cc(C2CCN(C(=O)CN(C)C)CC2)ccc1Nc1ncc2ccc(-c3ccccc3OC)n2n1` displayed a melting point of 78 to 87 °C.
For the compound `CCC(C)(C)Nc1c(NCc2ccc(F)cc2F)c(=O)c1=O`, the melting point is 242 to 244 °C.
Compound `CCOc1c(C(=O)O)cnc2c1cnn2CC` returned a melting point of 198 to 199 °C.
For the compound `CN(C)c1ccc2c(c1)CN(c1cccc(-c3cc(Nc4ccncn4)c(=O)n(C)c3)c1CO)C2=O`, the melting point lay in the range of 206 to 208 °C.
The result for `O=C(NCCCn1cc(Cn2ccnc2)c2ccccc21)Nc1ccccc1` reads 177 to 178 °C; that for `Cc1cccc2nc(C(C)Nc3ncnc4c3ncn4COCC[Si](C)(C)C)n(-c3cccc(C(N)=O)c3)c(=O)c12` (stereo not drawn), 195 to 197 °C; that for `COC(=O)c1cccc2c(CCl)c(C)sc12`, 125 to 126 °C.
Regarding `CCc1nn2c(-c3ccc(Cl)cc3Cl)nc(C)nc2c1C(CC)CC`, the melting point fell in the range of 91 to 93 °C.
The compound `CC1(C)CS(=O)(=O)CC(C)(C)N1N=O` gave a melting point of 184 °C.
The result for `COc1ncc(NS(=O)(=O)c2cccc3c(N(C)C)cccc23)c(OC)n1` reads 201 °C.
Regarding `O=C1c2ccccc2C(O)C1Cc1ncc(C(F)(F)F)cc1Cl` (stereo not drawn), the melting point is 174 to 178 °C.
Regarding `CN(C)Cc1nnc2n1-c1ccc([N+](=O)[O-])cc1C(c1ccccc1)=[N+]([O-])C2`, the melting point fell in the range of 228 to 230 °C.
`CCOc1cc2c(cc1OC)C(c1ccc(C(=O)N(C(C)C)C(C)C)cc1)=N[C@@H]1CCOC[C@H]21` registered a melting point of 116 to 120 °C.
In the case of `Cc1ccc(S(=O)(=O)C(=[N+]=[N-])C(=O)C(C)(C)C)cc1` it was 120 to 122 °C; in that of `CC1CC(=O)NN=C1c1ccc2c(c1)CCN2` (stereo not drawn), 187 to 189 °C; in that of `COC(=O)Nc1c(Cl)ccc(Br)c1F`, 107 to 112 °C.
